Legend:
Test in all cases: KINOMEscan
Assay type in all cases: binding
Details in all cases: 1.0 µM
ERK8 = target: T1, ERK8 (Homo sapiens, UniProt Q8TD08)
T1 construct: purchased Eurofins/DiscoverX KINOMEscan scanMAX
Protocol: (§1) Kinase retention to the immobilized ligand is then measured using quantitative real-time PCR for each kinase-specific DNA barcode.

ASK2 = target: T2, ASK2 (Homo sapiens, UniProt O95382)
T2 construct: purchased Eurofins/DiscoverX KINOMEscan scanMAX
Protocol: as §1

LZK = target: T3, LZK (Homo sapiens, UniProt O43283)
T3 construct: purchased Eurofins/DiscoverX KINOMEscan scanMAX
Protocol: as §1

MEK3 = target: T4, MEK3 (Homo sapiens, UniProt P46734)
T4 construct: purchased Eurofins/DiscoverX KINOMEscan scanMAX
Protocol: as §1

ALK(L1196M) = target: T5, ALK(L1196M) (Homo sapiens, UniProt Q9UM73, L1196M)
T5 construct: purchased Eurofins/DiscoverX KINOMEscan scanMAX
Protocol: as §1

RET = target: T6, RET (Homo sapiens, UniProt P07949)
T6 construct: purchased Eurofins/DiscoverX KINOMEscan scanMAX
Protocol: as §1

MEK5 = target: T7, MEK5 (Homo sapiens, UniProt Q13163)
T7 construct: purchased Eurofins/DiscoverX KINOMEscan scanMAX
Protocol: as §1

PAK7 = target: T8, PAK7 (Homo sapiens, UniProt Q9P286)
T8 construct: purchased Eurofins/DiscoverX KINOMEscan scanMAX
Protocol: as §1

IKK-beta = target: T9, IKK-beta (Homo sapiens, UniProt O14920)
T9 construct: purchased Eurofins/DiscoverX KINOMEscan scanMAX
Protocol: as §1

PIM2 = target: T10, PIM2 (Homo sapiens, UniProt Q9P1W9)
T10 construct: purchased Eurofins/DiscoverX KINOMEscan scanMAX
Protocol: as §1

PKMYT1 = target: T11, PKMYT1 (Homo sapiens, UniProt Q99640)
T11 construct: purchased Eurofins/DiscoverX KINOMEscan scanMAX
Protocol: as §1

SGK = target: T12, SGK (Homo sapiens, UniProt O00141)
T12 construct: purchased Eurofins/DiscoverX KINOMEscan scanMAX
Protocol: as §1

SNRK = target: T13, SNRK (Homo sapiens, UniProt Q9NRH2)
T13 construct: purchased Eurofins/DiscoverX KINOMEscan scanMAX
Protocol: as §1

SGK2 = target: T14, SGK2 (Homo sapiens, UniProt Q9HBY8)
T14 construct: purchased Eurofins/DiscoverX KINOMEscan scanMAX
Protocol: as §1

PIK3C2G = target: T15, PIK3C2G (Homo sapiens, UniProt O75747)
T15 construct: purchased Eurofins/DiscoverX KINOMEscan scanMAX
Protocol: as §1

BRK = target: T16, BRK (Homo sapiens, UniProt Q13882)
T16 construct: purchased Eurofins/DiscoverX KINOMEscan scanMAX
Protocol: as §1

CDKL3 = target: T17, CDKL3 (Homo sapiens, UniProt Q8IVW4)
T17 construct: purchased Eurofins/DiscoverX KINOMEscan scanMAX
Protocol: as §1

FLT3(N841I) = target: T18, FLT3(N841I) (Homo sapiens, UniProt P36888, N841I)
T18 construct: purchased Eurofins/DiscoverX KINOMEscan scanMAX
Protocol: as §1

MAP3K15 = target: T19, MAP3K15 (Homo sapiens, UniProt Q6ZN16)
T19 construct: purchased Eurofins/DiscoverX KINOMEscan scanMAX
Protocol: as §1

CHEK1 = target: T20, CHEK1 (Homo sapiens, UniProt O14757)
T20 construct: purchased Eurofins/DiscoverX KINOMEscan scanMAX
Protocol: as §1

CDC2L1 = target: T21, CDC2L1 (Homo sapiens, UniProt P21127)
T21 construct: purchased Eurofins/DiscoverX KINOMEscan scanMAX
Protocol: as §1

IRAK1 = target: T22, IRAK1 (Homo sapiens, UniProt P51617)
T22 construct: purchased Eurofins/DiscoverX KINOMEscan scanMAX
Protocol: as §1

[1] = target: T23, ABL1(H396P)-phosphorylated (Homo sapiens, UniProt P00519, H396P)
T23 construct: purchased Eurofins/DiscoverX KINOMEscan scanMAX
Protocol: as §1

MYLK2 = target: T24, MYLK2 (Homo sapiens, UniProt Q9H1R3)
T24 construct: purchased Eurofins/DiscoverX KINOMEscan scanMAX
Protocol: as §1

MST4 = target: T25, MST4 (Homo sapiens, UniProt Q9P289)
T25 construct: purchased Eurofins/DiscoverX KINOMEscan scanMAX
Protocol: as §1

MAP4K3 = target: T26, MAP4K3 (Homo sapiens, UniProt Q8IVH8)
T26 construct: purchased Eurofins/DiscoverX KINOMEscan scanMAX
Protocol: as §1

NEK11 = target: T27, NEK11 (Homo sapiens, UniProt Q8NG66)
T27 construct: purchased Eurofins/DiscoverX KINOMEscan scanMAX
Protocol: as §1

ALK(C1156Y) = target: T28, ALK(C1156Y) (Homo sapiens, UniProt Q9UM73, C1156Y)
T28 construct: purchased Eurofins/DiscoverX KINOMEscan scanMAX
Protocol: as §1

MAPKAPK2 = target: T29, MAPKAPK2 (Homo sapiens, UniProt P49137)
T29 construct: purchased Eurofins/DiscoverX KINOMEscan scanMAX
Protocol: as §1

FLT3(R834Q) = target: T30, FLT3(R834Q) (Homo sapiens, UniProt P36888, R834Q)
T30 construct: purchased Eurofins/DiscoverX KINOMEscan scanMAX
Protocol: as §1

PRKR = target: T31, PRKR (Homo sapiens, UniProt P19525)
T31 construct: purchased Eurofins/DiscoverX KINOMEscan scanMAX
Protocol: as §1

[2] = target: T32, ABL1(H396P)-nonphosphorylated (Homo sapiens, UniProt P00519, H396P)
T32 construct: purchased Eurofins/DiscoverX KINOMEscan scanMAX
Protocol: as §1

LRRK2(G2019S) = target: T33, LRRK2(G2019S) (Homo sapiens, UniProt Q5S007, G2019S)
T33 construct: purchased Eurofins/DiscoverX KINOMEscan scanMAX
Protocol: as §1

RAF1 = target: T34, RAF1 (Homo sapiens, UniProt P04049)
T34 construct: purchased Eurofins/DiscoverX KINOMEscan scanMAX
Protocol: as §1

MST1 = target: T35, MST1 (Homo sapiens, UniProt Q13043)
T35 construct: purchased Eurofins/DiscoverX KINOMEscan scanMAX
Protocol: as §1

GRK3 = target: T36, GRK3 (Homo sapiens, UniProt P35626)
T36 construct: purchased Eurofins/DiscoverX KINOMEscan scanMAX
Protocol: as §1

HPK1 = target: T37, HPK1 (Homo sapiens, UniProt Q92918)
T37 construct: purchased Eurofins/DiscoverX KINOMEscan scanMAX
Protocol: as §1

SIK = target: T38, SIK (Homo sapiens, UniProt P57059)
T38 construct: purchased Eurofins/DiscoverX KINOMEscan scanMAX
Protocol: as §1

ERK3 = target: T39, ERK3 (Homo sapiens, UniProt Q16659)
T39 construct: purchased Eurofins/DiscoverX KINOMEscan scanMAX
Protocol: as §1

MYLK = target: T40, MYLK (Homo sapiens, UniProt Q15746)
T40 construct: purchased Eurofins/DiscoverX KINOMEscan scanMAX
Protocol: as §1

PIK3CG = target: T41, PIK3CG (Homo sapiens, UniProt P48736)
T41 construct: purchased Eurofins/DiscoverX KINOMEscan scanMAX
Protocol: as §1

MST1R = target: T42, MST1R (Homo sapiens, UniProt Q04912)
T42 construct: purchased Eurofins/DiscoverX KINOMEscan scanMAX
Protocol: as §1

PIK3CA(E545K) = target: T43, PIK3CA(E545K) (Homo sapiens, UniProt P42336, E545K)
T43 construct: purchased Eurofins/DiscoverX KINOMEscan scanMAX
Protocol: as §1

T2 sequence (O95382 whole entry): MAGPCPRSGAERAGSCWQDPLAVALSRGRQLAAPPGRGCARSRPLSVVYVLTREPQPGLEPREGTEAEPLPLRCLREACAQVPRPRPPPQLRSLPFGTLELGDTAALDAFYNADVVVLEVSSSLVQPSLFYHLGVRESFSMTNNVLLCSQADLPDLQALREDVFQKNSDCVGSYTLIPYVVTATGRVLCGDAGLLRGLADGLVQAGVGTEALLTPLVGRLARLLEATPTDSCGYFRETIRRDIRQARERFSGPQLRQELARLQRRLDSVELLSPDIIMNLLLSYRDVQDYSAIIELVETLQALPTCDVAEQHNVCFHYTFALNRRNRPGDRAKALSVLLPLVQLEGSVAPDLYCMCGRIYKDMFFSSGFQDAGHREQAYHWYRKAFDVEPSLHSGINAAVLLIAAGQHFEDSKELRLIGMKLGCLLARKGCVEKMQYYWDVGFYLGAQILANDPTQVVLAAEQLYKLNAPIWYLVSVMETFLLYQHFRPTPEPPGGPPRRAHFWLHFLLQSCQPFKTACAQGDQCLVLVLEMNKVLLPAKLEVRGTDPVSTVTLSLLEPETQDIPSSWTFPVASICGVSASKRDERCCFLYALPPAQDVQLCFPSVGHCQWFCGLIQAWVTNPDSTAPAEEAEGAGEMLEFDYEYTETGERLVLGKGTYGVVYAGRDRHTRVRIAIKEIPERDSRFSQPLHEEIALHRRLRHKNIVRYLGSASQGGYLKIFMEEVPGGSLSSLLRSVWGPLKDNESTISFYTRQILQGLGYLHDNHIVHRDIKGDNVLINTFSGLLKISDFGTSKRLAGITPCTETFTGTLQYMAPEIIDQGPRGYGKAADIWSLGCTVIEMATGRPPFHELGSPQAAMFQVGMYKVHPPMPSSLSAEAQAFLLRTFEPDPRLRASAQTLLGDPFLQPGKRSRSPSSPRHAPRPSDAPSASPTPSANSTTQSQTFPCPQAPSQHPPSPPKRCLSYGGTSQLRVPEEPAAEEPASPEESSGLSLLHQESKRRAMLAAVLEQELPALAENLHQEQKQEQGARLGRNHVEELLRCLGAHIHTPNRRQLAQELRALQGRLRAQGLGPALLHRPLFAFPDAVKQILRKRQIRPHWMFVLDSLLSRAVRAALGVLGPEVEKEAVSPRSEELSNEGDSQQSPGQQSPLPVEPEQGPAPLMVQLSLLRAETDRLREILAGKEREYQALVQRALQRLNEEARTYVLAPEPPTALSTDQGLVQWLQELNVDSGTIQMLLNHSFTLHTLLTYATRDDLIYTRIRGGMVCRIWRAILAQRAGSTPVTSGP
T27 sequence (Q8NG66 whole entry): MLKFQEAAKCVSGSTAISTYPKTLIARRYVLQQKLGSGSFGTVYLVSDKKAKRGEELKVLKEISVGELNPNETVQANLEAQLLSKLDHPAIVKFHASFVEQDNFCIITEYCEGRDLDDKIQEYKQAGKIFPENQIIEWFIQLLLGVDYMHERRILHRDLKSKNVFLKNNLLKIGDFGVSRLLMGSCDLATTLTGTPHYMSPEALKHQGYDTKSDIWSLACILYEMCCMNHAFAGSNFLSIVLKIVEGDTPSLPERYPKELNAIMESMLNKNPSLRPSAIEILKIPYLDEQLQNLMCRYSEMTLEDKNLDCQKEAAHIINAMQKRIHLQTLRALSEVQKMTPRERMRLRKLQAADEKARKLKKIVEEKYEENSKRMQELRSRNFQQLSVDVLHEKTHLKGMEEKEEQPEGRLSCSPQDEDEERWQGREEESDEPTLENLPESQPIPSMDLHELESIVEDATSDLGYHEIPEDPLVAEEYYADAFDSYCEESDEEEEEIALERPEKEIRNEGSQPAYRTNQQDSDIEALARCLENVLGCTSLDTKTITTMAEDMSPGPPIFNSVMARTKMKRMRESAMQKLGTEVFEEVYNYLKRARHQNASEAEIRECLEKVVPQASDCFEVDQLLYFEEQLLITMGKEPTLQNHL
T11 sequence (Q99640 whole entry): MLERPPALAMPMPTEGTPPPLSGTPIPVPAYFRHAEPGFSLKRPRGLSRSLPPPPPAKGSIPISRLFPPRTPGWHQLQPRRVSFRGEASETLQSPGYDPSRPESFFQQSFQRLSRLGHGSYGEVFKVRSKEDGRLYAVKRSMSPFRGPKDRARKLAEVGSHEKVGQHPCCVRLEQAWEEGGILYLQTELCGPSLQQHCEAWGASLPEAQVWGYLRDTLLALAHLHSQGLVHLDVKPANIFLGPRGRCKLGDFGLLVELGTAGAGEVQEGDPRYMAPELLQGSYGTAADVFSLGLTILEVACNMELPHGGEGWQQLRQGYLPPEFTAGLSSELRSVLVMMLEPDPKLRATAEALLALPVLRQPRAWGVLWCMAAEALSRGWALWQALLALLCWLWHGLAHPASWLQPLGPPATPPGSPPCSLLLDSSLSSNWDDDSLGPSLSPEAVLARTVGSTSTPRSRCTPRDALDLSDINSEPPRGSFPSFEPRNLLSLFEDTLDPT
T12 sequence (O00141 whole entry): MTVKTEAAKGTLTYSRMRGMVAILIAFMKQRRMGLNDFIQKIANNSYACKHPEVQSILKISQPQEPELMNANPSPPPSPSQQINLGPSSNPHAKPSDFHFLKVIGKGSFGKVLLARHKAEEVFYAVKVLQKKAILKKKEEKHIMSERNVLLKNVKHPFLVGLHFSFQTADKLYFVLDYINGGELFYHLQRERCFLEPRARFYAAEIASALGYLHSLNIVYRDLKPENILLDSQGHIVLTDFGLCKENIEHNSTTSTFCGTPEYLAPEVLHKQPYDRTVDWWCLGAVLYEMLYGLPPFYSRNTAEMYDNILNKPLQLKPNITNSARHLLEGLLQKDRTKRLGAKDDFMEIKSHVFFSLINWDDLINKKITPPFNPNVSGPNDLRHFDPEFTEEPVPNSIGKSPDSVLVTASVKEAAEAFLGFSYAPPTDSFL
T15 sequence (O75747 whole entry): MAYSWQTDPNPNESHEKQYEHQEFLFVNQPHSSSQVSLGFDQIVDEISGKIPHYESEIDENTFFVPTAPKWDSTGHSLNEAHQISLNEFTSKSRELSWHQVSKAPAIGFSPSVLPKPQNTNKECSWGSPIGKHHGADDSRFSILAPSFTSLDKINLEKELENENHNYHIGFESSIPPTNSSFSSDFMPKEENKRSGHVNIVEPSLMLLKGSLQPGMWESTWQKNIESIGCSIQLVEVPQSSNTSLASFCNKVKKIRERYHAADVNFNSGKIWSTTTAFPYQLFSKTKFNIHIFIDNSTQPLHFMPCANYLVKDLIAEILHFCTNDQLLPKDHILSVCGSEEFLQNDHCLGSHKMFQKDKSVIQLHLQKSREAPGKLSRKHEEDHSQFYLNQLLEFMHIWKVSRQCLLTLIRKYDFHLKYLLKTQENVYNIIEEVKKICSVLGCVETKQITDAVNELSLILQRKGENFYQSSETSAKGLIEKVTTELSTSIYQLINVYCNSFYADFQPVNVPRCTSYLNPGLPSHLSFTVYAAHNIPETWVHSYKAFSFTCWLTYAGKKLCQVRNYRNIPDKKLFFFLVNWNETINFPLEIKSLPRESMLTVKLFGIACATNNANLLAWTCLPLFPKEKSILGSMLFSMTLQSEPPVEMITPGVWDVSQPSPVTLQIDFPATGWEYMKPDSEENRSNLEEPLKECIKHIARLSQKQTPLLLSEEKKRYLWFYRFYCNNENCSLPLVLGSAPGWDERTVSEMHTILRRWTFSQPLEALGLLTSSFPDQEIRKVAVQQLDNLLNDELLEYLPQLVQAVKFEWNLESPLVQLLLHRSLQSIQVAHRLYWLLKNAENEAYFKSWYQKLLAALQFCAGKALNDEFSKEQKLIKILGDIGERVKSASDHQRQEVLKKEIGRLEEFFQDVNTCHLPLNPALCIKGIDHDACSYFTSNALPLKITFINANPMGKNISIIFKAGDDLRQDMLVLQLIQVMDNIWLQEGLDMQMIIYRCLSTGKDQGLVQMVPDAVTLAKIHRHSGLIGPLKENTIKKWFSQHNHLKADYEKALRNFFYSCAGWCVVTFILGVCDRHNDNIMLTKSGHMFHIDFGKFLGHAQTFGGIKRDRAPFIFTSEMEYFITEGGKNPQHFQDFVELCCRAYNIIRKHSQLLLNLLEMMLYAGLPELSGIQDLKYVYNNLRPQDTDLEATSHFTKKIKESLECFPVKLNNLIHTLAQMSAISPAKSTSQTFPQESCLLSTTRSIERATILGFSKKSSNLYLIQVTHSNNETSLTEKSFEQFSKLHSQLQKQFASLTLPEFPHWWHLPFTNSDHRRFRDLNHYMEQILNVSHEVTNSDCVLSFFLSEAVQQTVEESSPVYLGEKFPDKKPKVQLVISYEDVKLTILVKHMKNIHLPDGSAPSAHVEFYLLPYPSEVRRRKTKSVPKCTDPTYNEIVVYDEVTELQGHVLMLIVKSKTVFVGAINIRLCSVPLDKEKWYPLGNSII
T1 sequence (Q8TD08 whole entry): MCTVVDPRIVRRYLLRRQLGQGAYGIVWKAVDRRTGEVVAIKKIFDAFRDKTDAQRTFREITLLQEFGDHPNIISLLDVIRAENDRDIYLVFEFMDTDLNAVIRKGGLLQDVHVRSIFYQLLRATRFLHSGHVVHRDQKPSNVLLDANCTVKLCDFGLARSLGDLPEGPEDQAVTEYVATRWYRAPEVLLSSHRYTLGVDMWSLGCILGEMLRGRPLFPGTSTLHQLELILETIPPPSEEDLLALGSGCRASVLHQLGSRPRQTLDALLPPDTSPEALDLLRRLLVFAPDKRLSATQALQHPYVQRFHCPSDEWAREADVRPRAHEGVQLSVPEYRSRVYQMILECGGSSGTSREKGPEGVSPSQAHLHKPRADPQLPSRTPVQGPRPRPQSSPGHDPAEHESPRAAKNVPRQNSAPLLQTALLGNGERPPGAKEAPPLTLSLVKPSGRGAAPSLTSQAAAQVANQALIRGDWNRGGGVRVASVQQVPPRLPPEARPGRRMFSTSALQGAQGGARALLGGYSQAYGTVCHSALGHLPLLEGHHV

CN1CCN(C2CCC(n3cc(-c4ccc(Oc5ccccc5)cc4)c4c(N)ncnc43)CC2)CC1 (stereo not shown) [A-419259]
% Control (ERK8): 100% | % Control (ASK2): 62% | % Control (LZK): 85% | % Control (MEK3): 91% | % Control (ALK(L1196M)): 68% | % Control (RET): 0% | % Control (MEK5): 0.25% | % Control (PAK7): 89% | % Control (IKK-beta): 90% | % Control (PIM2): 100% | % Control (PKMYT1): 100% | % Control (SGK): 75% | % Control (SNRK): 94% | % Control (SGK2): 90% | % Control (PIK3C2G): 100% | % Control (BRK): 0.2% | % Control (CDKL3): 100% | % Control (FLT3(N841I)): 5.3% | % Control (MAP3K15): 79% | % Control (CHEK1): 54% | % Control (CDC2L1): 61% | % Control (IRAK1): 98% | % Control [1]: 0.65% | % Control (MYLK2): 95% | % Control (MST4): 4.9% | % Control (MAP4K3): 32% | % Control (NEK11): 77% | % Control (ALK(C1156Y)): 21% | % Control (MAPKAPK2): 100% | % Control (FLT3(R834Q)): 2.7% | % Control (PRKR): 100% | % Control [2]: 0.2% | % Control (LRRK2(G2019S)): 100% | % Control (RAF1): 40% | % Control (MST1): 34% | % Control (GRK3): 100% | % Control (HPK1): 44% | % Control (SIK): 2.1% | % Control (ERK3): 100% | % Control (MYLK): 94% | % Control (PIK3CG): 61% | % Control (MST1R): 96% | % Control (PIK3CA(E545K)): 95%

Source: publication PMC6886798, “Expression of myeloid Src-family kinases is associated with poor prognosis in AML and influences Flt3-ITD kinase inhibitor acquired resistance” (PLoS ONE, 2019)
